The target in one experiment is FGFR2-WT (Homo sapiens, UniProt P21802). Nature of the experiment: Phosphorylated FGFR2-WT (pFGFR2-WT) cell assay, KATOIII cells. The format is cell-based. The note with it: 1 hour incubation, phospho FGFR2 HTRF. In outline:
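KATOIII cells treated 1 h at 37 °C with threefold compound dilutions (10 μM to 0.5 nM). Lysate phospho-FGFR2 (Tyr653/654) read by HTRF.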
(Time-resolved FRET reads energy transfer from a long-lived donor to a nearby acceptor.)

A further experiment has as its target T1, FGFR2 (Homo sapiens, UniProt P21802).
T1 construct: biochemical assays using purified intracellular domains of the respective isoforms; purchased Carna Bioscience 08-134
Nature of the experiment: FGFR wild type enzyme assay (HTRF KinEASE-TK). The experiment is classed as biochemical. The note with it: ATP 2 uM. A digest of the protocol: (§1)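 Purified intracellular kinase domains, enzyme pre-incubated 30 min with compound (11-point 1:3 dilutions, typically 10,000-0.17 nM), then ATP plus 0.5 uM TK-peptide, 60 min at room temperature in HEPES pH7.5 with Mg2+/Mn2+. HTRF 665/615 ratio converted to percent of control; IC50 from four-parameter logistic fit.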

In another experiment the target is T2, FGFR2 V564F (Homo sapiens, UniProt P21802, V564F).
T2 construct: biochemical assays using purified intracellular domains of the respective isoforms; purchased SignalChem Biotech F05-12FG
Nature of the experiment: FGFR mutant enzyme assay (HTRF KinEASE-TK). The experiment is classed as biochemical. The note with it: ATP 1.5 uM. In outline: as §1

The target of another experiment is T3, FGFR2 V564I (Homo sapiens, UniProt P21802, V564I).
T3 construct: biochemical assays using purified intracellular domains of the respective isoforms; purchased Carna Bioscience 08-546
Nature of the experiment: FGFR mutant enzyme assay (HTRF KinEASE-TK). The experiment is classed as biochemical. The note with it: ATP 0.4 uM. In outline:
as §1

Another experiment concerns the target T4, FGFR2 N549H (Homo sapiens, UniProt P21802, N549H).
T4 construct: biochemical assays using purified intracellular domains of the respective isoforms; purchased Carna Bioscience 08-532
In words: FGFR mutant enzyme assay (HTRF KinEASE-TK). The format is biochemical. The note with it: ATP 0.9 uM. In outline:
as §1

The mark [1] stands for this setting: compound table after the examples, read-out: Enz FGFR2.

The structures appear in SMILES notation. Read-outs that look alike come from different tables or passages of the source.

This is an account of results in patent US12351581B2, “Compounds for FGFR inhibition” (Cogent Biosciences, Inc., priority 2023, dated 2025).

T1 sequence (P21802 399-821 limits assumed): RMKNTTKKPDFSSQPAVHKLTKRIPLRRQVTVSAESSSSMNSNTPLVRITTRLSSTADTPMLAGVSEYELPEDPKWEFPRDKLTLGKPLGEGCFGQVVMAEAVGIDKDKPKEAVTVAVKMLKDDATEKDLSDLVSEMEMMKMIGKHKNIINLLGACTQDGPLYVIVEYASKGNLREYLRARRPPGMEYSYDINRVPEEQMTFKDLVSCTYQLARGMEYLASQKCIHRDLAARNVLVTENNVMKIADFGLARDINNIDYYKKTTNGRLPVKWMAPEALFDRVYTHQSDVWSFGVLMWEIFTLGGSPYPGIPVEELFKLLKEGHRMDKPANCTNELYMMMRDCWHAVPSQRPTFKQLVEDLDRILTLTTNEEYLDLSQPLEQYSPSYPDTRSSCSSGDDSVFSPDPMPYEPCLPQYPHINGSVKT
Sequence of FGFR2-WT (P21802 430-767 limits assumed): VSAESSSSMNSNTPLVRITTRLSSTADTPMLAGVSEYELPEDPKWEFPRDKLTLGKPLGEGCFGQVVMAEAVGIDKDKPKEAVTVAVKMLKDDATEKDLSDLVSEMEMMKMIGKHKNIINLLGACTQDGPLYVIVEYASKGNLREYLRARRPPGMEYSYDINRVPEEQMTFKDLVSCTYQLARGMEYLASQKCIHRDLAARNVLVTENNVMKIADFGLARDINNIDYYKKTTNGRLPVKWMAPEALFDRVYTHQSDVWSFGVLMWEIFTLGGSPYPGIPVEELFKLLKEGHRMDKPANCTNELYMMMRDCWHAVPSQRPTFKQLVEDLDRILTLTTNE
T2 sequence (P21802 399-821 V564F limits assumed): as the sequence (P21802 399-821 limits assumed) above, with V166F counted along it
T4 sequence (P21802 399-821 N549H limits assumed): as the sequence (P21802 399-821 limits assumed) above, with N151H counted along it
T3 sequence (P21802 399-821 V564I limits assumed): as the sequence (P21802 399-821 limits assumed) above, with V166I counted along it

Consider `Cc1c(-c2cc(O[C@H](C)c3ccc(F)cn3)c3c(C#N)cnn3c2)cnn1[C@H]1CCC[C@H](O)C1` [Compound 67, 4-((R)-1-(5-fluoropyridin-2-yl)ethoxy)-6-(1-((1S,3S)-3-hydroxycyclohexyl)-5-methyl-1H-pyrazol-4-yl)pyrazolo[1,5-a]pyridine-3-carbonitrile], for which the IC50 against FGFR2-WT was determined as 4 nM; at FGFR2 (Table 3, read-out: FGFR2 Enz), 0.4 nM; on FGFR2 (setting [1]), 0.4 nM; on FGFR2 V564F it was 1 nM; on FGFR2 V564I, 1.4 nM; on FGFR2 N549H it was 0.4 nM.
As to `Cc1c(-c2cc(O[C@H](C)c3ccc(F)cn3)c3c(C#N)cnn3c2)cnn1[C@@H]1CCC[C@@H](O)C1` [Compound 68, 4-((R)-1-(5-fluoropyridin-2-yl)ethoxy)-6-(1-((1R,3R)-3-hydroxycyclohexyl)-5-methyl-1H-pyrazol-4-yl)pyrazolo[1,5-a]pyridine-3-carbonitrile], the IC50 against FGFR2-WT turned out to be 8 nM; at FGFR2 (Table 3, read-out: FGFR2 Enz), 1 nM; on FGFR2 (setting [1]), 1 nM; on FGFR2 V564F, 3 nM; at FGFR2 V564I, 4 nM; against FGFR2 N549H, 1 nM.
With `Cc1c(-c2cc(O[C@@H](c3ccc(F)cn3)C(F)(F)F)c3c(C#N)cnn3c2)cnn1[C@H]1CC[C@H](O)CC1` [Compound 69, 6-(1-((1r,4S)-4-hydroxycyclohexyl)-5-methyl-1H-pyrazol-4-yl)-4-((S)-2,2,2-trifluoro-1-(5-fluoropyridin-2-yl)ethoxy)pyrazolo[1,5-a]pyridine-3-carbonitrile], the IC50 turned out to be 2 nM against FGFR2-WT; 0.4 nM on FGFR2 (Table 3, read-out: FGFR2 Enz); 0.4 nM on FGFR2 (setting [1]); 1.6 nM at FGFR2 V564F; 1.6 nM at FGFR2 V564I; 1 nM against FGFR2 N549H.
As for `Cc1c(-c2cc(O[C@H](c3ccc(F)cn3)C(F)(F)F)c3c(C#N)cnn3c2)cnn1[C@H]1CC[C@H](O)CC1` [Compound 70, 6-(1-((1r,4R)-4-hydroxycyclohexyl)-5-methyl-1H-pyrazol-4-yl)-4-((R)-2,2,2-trifluoro-1-(5-fluoropyridin-2-yl)ethoxy)pyrazolo[1,5-a]pyridine-3-carbonitrile], the IC50 at FGFR2-WT came to 790 nM; on FGFR2 (Table 3, read-out: FGFR2 Enz), 110 nM; on FGFR2 (setting [1]), 110 nM; at FGFR2 V564F, 219 nM; at FGFR2 V564I, 420 nM; at FGFR2 N549H it was 160 nM.
`Cc1c(-c2cc(O[C@H](C)c3ccc(F)cn3)c3c(C#N)cnn3c2)cnn1[C@H]1CCC[C@@H](O)C1` [Compound 71, 4-((R)-1-(5-fluoropyridin-2-yl)ethoxy)-6-(1-((1S,3R)-3-hydroxycyclohexyl)-5-methyl-1H-pyrazol-4-yl)pyrazolo[1,5-a]pyridine-3-carbonitrile]: the IC50 turned out to be 4.5 nM against FGFR2-WT; 1 nM on FGFR2 (Table 3, read-out: FGFR2 Enz); 1 nM at FGFR2 (setting [1]); 2 nM on FGFR2 V564F; 3 nM on FGFR2 V564I; 1 nM against FGFR2 N549H.
In the case of `Cc1c(-c2cc(O[C@H](C)c3ccc(F)cn3)c3c(C#N)cnn3c2)cnn1[C@@H]1CCC[C@H](O)C1` [Compound 72, 4-((R)-1-(5-fluoropyridin-2-yl)ethoxy)-6-(1-((1R,3S)-3-hydroxycyclohexyl)-5-methyl-1H-pyrazol-4-yl)pyrazolo[1,5-a]pyridine-3-carbonitrile], the IC50 at FGFR2-WT was 3 nM; at FGFR2 (Table 3, read-out: FGFR2 Enz) it was 0.4 nM; on FGFR2 (setting [1]), 0.4 nM; against FGFR2 V564F, 1 nM; against FGFR2 V564I, 1.5 nM; against FGFR2 N549H it was 0.45 nM.
